According to US10864211B2, “Hydroxy isoxazole compounds useful as GPR120 agonists” (Merck Sharp & Dohme Corp., priority 2016, dated 2020):
Counter-ions that a name gives are not always drawn.

Target: T1, human GPR120 (Homo sapiens, UniProt Q5NUL3)
T1 construct: expressed in transfected cells; host or cells: CHO-K1
T1 sequence (Q5NUL3 1-361): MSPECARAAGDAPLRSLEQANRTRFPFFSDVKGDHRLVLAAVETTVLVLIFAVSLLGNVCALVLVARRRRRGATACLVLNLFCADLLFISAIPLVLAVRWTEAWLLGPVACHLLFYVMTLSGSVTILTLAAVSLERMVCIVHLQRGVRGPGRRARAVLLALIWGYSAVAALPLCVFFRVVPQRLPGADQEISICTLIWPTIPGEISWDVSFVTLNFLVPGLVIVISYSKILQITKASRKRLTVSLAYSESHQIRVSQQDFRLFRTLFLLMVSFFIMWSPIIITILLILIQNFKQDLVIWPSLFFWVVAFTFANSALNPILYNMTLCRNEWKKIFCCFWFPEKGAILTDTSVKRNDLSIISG
Experiment: Human GPR120 IP1 assay (inositol phosphate turnover)
Format: cell-based
Settings: IP1 accumulation in CHO-K1 cells stably expressing the short form of human GPR120
Excerpt: The binding of small molecule agonists to the G-protein-coupled receptor GPR120 activates phospholipase C, and leads to the generation of inositol 1,4,5-trisphosphate (InsP3 or IP3). IP3 is subsequently de-phosphorylated to IP1, which accumulates in cells and is stable in the presence of lithium chloride.
In the present method, agonist-induced activation of the human and rat GPR120 receptor was monitored by measuring the accumulation of IP1 in CHO-K1 cells that were stably expressing the short form of human GPR120 (Accession #NM_001195755) or HEK293 cells stably expressing rat GPR120 (Accession #NM_001047088). Following agonist addition, GPR120 activation and subsequent accumulation of IP1 was measured using a homogeneous Time Resolved Fluorescence-based ELISA commercially available from CisBio (IP-one ELISA Kit). The IP-One ELISA was a competitive immunoassay which uses IP1 labeled with […] and a terbium cryptate-labeled anti-IP1 monoclonal antibody. […] The signal loss was then back calculated to IP1 concentration using an IP1 standard curve. Determination of IP1 concentration was a direct measure of GPR120 activation and was used to determine compound potency (EC50).
Human GPR120 stable cell-lines were generated in CHO cells. The expression plasmids were transfected using lipofectamine (Life Technologies) following manufacturer's instructions. Stable cell-lines were generated following drug selection and single cell cloning. Rat GPR120 stable cell-lines were generated in HEK cells using the Jump-In™ cell engineering platform (Life Technologies) following manufacturer's instructions. Stable cell-lines were generated following drug selection and single cell cloning.
The assay was performed in 384-well format. CHO cells stably expressing human GPR120 were plated at 20,000 cells per well in growth medium (DMEM/F12, 10% fetal calf serum). HEK293 cells stably expressing rat GPR120 were plated at […] per well in growth medium (DMEM, 10% fetal calf serum). Cell plates were then incubated 16 hours at 37 degrees in a 5% CO2 incubator. Measurement of Inositol Phosphate Turnover (IP1) was performed using the CisBio IP-One kit (Part number 62IPAPEB). After the 16 hour incubation, the growth media was removed by centrifugation using the BlueWasher (AusWasher GUI Ver. v1.0.1.8) Protocol #21-“Light Dry” and 10 μl of stimulation buffer (prepared as described in the kit) was added to each well. In a separate plate, compounds were diluted in DMSO (200-fold over the final concentration in the assay well) and 50 nl was acoustically transferred to the appropriate well in the assay cell plate. The plates were then incubated for 60 minutes at 37 degrees in a 5% CO2 incubator. 10 μl of detection buffer (also prepared as described in the IP-One kit) was added to each well and the plates were incubated at room temperature for 60 minutes in the dark. The plates were then read in a Perkin ElmerEnVision or equivalent reader able to measure FRET. Fluorescent ratio of emission at 665 and 620 nm was then converted to the IP1 concentration by back calculating from an IP1 standard curve prepared at the time of the assay. The data was normalized to % activity using a reference compound, and the EC50 values were determined using a standard 4-parameter fit.

| EC50 | Structure (SMILES) |
| --- | --- |
| 24 nM | Oc1cc(-c2cnc(O[C@H]3C[C@@H](c4ccc(F)c(C(F)F)c4)C3)cn2)on1 [Example 45, 5-[5-({cis-3-[3-(difluoromethyl)-4-fluorophenyl]cyclobutyl}oxy)pyrazin-2-yl]isoxazol-3-ol] |
| 36 nM | Cc1ccc([C@H]2C[C@@H](Oc3cnc(-c4cc(O)no4)cn3)C2)c(F)c1 [Example 46, 5-(5-{[cis-3-(2-fluoro-4-methylphenyl)cyclobutyl]oxy}pyrazin-2-yl)isoxazol-3-ol] |
| 104 nM | Cc1ccc([C@H]2C[C@H](Oc3cnc(-c4cc(O)no4)cn3)C2)c(F)c1 [Example 47, 5-(5-{[trans-3-(2-fluoro-4-methylphenyl)cyclobutyl]oxy}pyrazin-2-yl)isoxazol-3-ol] |
| 24 nM | Cc1ccc([C@H]2C[C@@H](Oc3cnc(-c4cc(O)no4)cn3)C2)c(F)c1 [Example 48, 5-(5-{[cis-3-(2-fluoro-4-methylphenyl)cyclobutyl]oxy}pyrazin-2-yl)isoxazol-3-ol] |
| 9.7 nM | Oc1cc(-c2cnc(O[C@H]3C[C@@H](c4c(F)cc(Cl)cc4F)C3)cn2)on1 [Example 49, ammonium 5-(5-{[cis-3-(4-chloro-2,6-difluorophenyl)-cyclobutyl]oxy}pyrazin-2-yl)isoxazol-3-olate] |
| 23 nM | Oc1cc(-c2cnc(O[C@H]3C[C@@H](c4c(F)cc(OC(F)F)cc4F)C3)cn2)on1 [Example 50, ammonium 5-[5-({cis-3-[4-(difluoromethoxy)-2,6-difluorophenyl]cyclobutyl}oxy)pyrazin-2-yl]isoxazol-3-olate] |
| 16 nM | Cc1cc(F)c([C@H]2C[C@@H](Oc3cnc(-c4cc(O)no4)cn3)C2)c(F)c1 [Example 51, ammonium 5-(5-{[cis-3-(2,6-difluoro-4-methyl-phenyl)-cyclobutyl]oxy}pyrazin-2-yl)isoxazol-3-olate] |
| 28 nM | Oc1cc(-c2cnc(O[C@H]3C[C@@H](c4cc(F)c(Cl)c(F)c4)C3)cn2)on1 [Example 52, 5-(5-{[cis-3-(4-chloro-3,5-di-fluorophenyl)cyclobutyl]oxy}pyrazin-2-yl)isoxazol-3-ol] |
| 14 nM | Oc1cc(-c2cnc(O[C@H]3C[C@@H](c4cc(F)c(OC(F)F)c(F)c4)C3)cn2)on1 [Example 53, ammonium 5-[5-({cis-3-[4-(difluoromethoxy)-3,5-di-fluorophenyl]cyclobutyl}oxy)pyrazin-2-yl]isoxazol-3-olate] |
| 99 nM | COc1cc(OC)cc([C@H]2C[C@@H](Oc3cnc(-c4cc(O)no4)cn3)C2)c1 [Example 54, ammonium 5-(5-{[cis-3-(3,5-dimethoxyphenyl)cyclobutyl]oxy}pyrazin-2-yl)isoxazol-3-olate] |
| 11 nM | Oc1cc(-c2cnc(O[C@H]3C[C@@H](c4ccc(C(F)(F)F)cc4)C3)cn2)on1 [Example 55, 5-[5-({cis-3-[4-(trifluoromethyl)phenyl]cyclobutyl}oxy)pyrazin-2-yl]isoxazol-3-ol] |
| 49 nM | Oc1cc(-c2cnc(O[C@H]3C[C@@H](c4ccc(OC(F)(F)F)cc4)C3)cn2)on1 [Example 56, 5-[5-({cis-3-[4-(trifluoromethoxy)phenyl]cyclobutyl}oxy)pyrazin-2-yl]isoxazol-3-ol] |
| 23 nM | Cc1ccc([C@H]2C[C@@H](Oc3cnc(-c4cc(O)no4)cn3)C2)cc1F [Example 57, 5-(5-{[cis-3-(3-fluoro-4-methylphenyl)cyclobutyl]oxy}pyrazin-2-yl)isoxazol-3-ol] |
| 104 nM | Oc1cc(-c2cnc(O[C@H]3C[C@@H](c4ccc(OC(F)F)cc4)C3)cn2)on1 [Example 58, 5-[5-({cis-3-[4-(difluoromethoxy)phenyl]cyclobutyl}oxy)pyrazin-2-yl]isoxazol-3-ol] |
| 8 nM | Oc1cc(-c2cnc(O[C@H]3C[C@@H](c4ccc(C(F)F)cc4)C3)cn2)on1 [Example 59, 5-[5-({cis-3-[4-(difluoromethyl)phenyl]cyclobutyl}oxy)pyrazin-2-yl]isoxazol-3-ol] |
| 13 nM | Oc1cc(-c2cnc(O[C@H]3C[C@H](c4ccc(OC5CC5)cc4)C3)cn2)on1 [Example 60, 5-[5-({trans-3-[4-(cyclopropyloxyl)phenyl]cyclobutyl}oxy)pyrazin-2-yl]isoxazol-3-ol] |
| 40 nM | Oc1cc(-c2ccc(O[C@H]3C[C@@H](OCc4ccc(F)c(F)c4)C3)nc2)on1 [Example 62, 2-({cis-3-[(3,4-difluorobenzyl)oxy]cyclobutyl}oxy)-5-(3-hydroxy-isoxazol-5-yl)pyridinium trifluoroacetate] |
| 53 nM | Oc1cc(-c2cnc(O[C@H]3C[C@@H](Oc4ccc(F)c(Cl)c4)C3)cn2)on1 [Example 63, ammonium 5-(5-{[cis-3-(3-chloro-4-fluorophenoxy)cyclobutyl]-oxy}pyrazin-2-yl)isoxazol-3-olate] |
| 1990 nM | Oc1cc(-c2ccc(OCC3CC(Oc4ccccc4)C3)nc2)on1 (stereo not shown) [Example 64, ammonium 5-{6-[(3-phenoxycyclobutyl)methoxy]pyridin-3-yl}isoxazol-3-olate] |
| 5.8 nM | Oc1cc(-c2cnc(O[C@H]3C[C@@H](COc4ccc(F)cc4)C3)cn2)on1 [Example 65, sodium 5-[5-({cis-3-[(4-fluorophenoxy)methyl]-cyclobutyl}oxy)pyrazin-2-yl]isoxazol-3-olate] |
| 37 nM | Oc1cc(-c2cnc(O[C@H]3C[C@@H](Oc4cccc(C(F)(F)F)c4)C3)cn2)on1 [Example 66, ammonium 5-[5-({cis-3-[3-(trifluoromethyl)phenoxy]cyclobutyl}oxy)pyrazin-2-yl]isoxazol-3-olate] |
| 47 nM | Oc1cc(-c2cnc(O[C@H]3C[C@@H](Oc4ccc(C(F)(F)F)cc4)C3)cn2)on1 [Example 67, ammonium 5-[5-({cis-3-[4-(trifluoromethyl)phenoxy]cyclobutyl}oxy)pyrazin-2-yl]isoxazol-3-olate] |
| 52 nM | Oc1cc(-c2cnc(O[C@H]3C[C@@H](Oc4cccc(OC(F)(F)F)c4)C3)cn2)on1 [Example 68, 5-[5-({cis-3-[3-(trifluoromethoxy)phenoxy]cyclobutyl}oxy)pyrazin-2-yl]isoxazol-3-ol] |
| 25 nM | Oc1cc(-c2cnc(O[C@H]3C[C@@H](Oc4csc(C(F)(F)F)c4)C3)cn2)on1 [Example 69, 5-{5-[(cis-3-{[5-(trifluoromethyl)thiophen-3-yl]oxy}cyclobutyl)oxy]pyrazin-2-yl}isoxazol-3-ol] |
| 24 nM | Oc1cc(-c2cnc(O[C@H]3C[C@@H](Oc4ccc(F)c(C(F)(F)F)c4)C3)cn2)on1 [Example 70, 5-[5-({cis-3-[4-fluoro-3-(trifluoromethyl)phenoxy]cyclobutyl}oxy)pyrazin-2-yl]isoxazol-3-ol] |
| 38 nM | Cc1cc(O[C@H]2C[C@@H](Oc3cnc(-c4cc(O)no4)cn3)C2)ccc1F [Example 71, 5-(5-{[cis-3-(4-fluoro-3-methylphenoxy)cyclobutyl]oxy}pyrazin-2-yl)isoxazol-3-ol] |
| 11 nM | Oc1cc(-c2ccc(O[C@H]3C[C@@H](OCc4cccc(C(F)(F)F)c4)C3)nc2)on1 [Example 74, 5-(3-hydroxyisoxazol-5-yl)-2-[(cis-3-{[3-(trifluoromethyl)benzyl]oxy}cyclobutyl)oxy]pyridinium trifluoroacetate] |
| 149 nM | Cc1nc(C(F)(F)F)c(CO[C@H]2C[C@@H](Oc3ccc(-c4cc(O)no4)cn3)C2)s1 [Example 75, 5-(3-hydroxyisoxazol-5-yl)-2-[(cis-3-{[2-methyl-4-(trifluoromethyl)-1,3-thiazol-5-yl]methoxy}cyclobutyl)oxy] pyridinium trifluoroacetate] |
